We go through seven compounds from ChEMBL document CHEMBL1139487, “Discovery of corticotropin releasing factor 2 receptor selective sauvagine analogues for treatment of skeletal muscle atrophy” (J Med Chem, 2005).

Molecules are shown by their SMILES. Square brackets hold non-standard residues; d marks the D form. Peptide text beside a SMILES is read from it. pGlu = O=C1CC[C@@H](C(=O)O)N1 A value given as a limit tells only on which side of the number the result lay.

In experiment [1] the target is T1, Corticotropin-releasing factor receptor 1 (Mus musculus) (UniProt P35347).
T1 sequence (whole entry): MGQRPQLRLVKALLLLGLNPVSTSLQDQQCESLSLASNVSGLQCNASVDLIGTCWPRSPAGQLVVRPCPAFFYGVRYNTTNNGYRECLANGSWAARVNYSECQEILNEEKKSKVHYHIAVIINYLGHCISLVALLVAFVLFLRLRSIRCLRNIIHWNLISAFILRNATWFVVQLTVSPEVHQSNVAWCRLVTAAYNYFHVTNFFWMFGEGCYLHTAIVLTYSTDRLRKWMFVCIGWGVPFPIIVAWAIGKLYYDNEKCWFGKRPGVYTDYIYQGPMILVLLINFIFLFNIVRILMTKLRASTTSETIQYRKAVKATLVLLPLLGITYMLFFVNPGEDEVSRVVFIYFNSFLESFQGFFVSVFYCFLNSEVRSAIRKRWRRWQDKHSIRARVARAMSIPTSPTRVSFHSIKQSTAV
Briefly: In vitro agonistic activity against mouse corticotropin releasing factor 1 receptor. Type of experiment: functional.

Experiment [2] deals with Corticotropin-releasing factor receptor 2 (Mus musculus) (UniProt Q60748). Briefly: In vitro agonistic activity against mouse corticotropin releasing factor 2 receptor. Type of experiment: functional.
Experiment [3] is filed under the species Mus musculus. Briefly: Selectivity ratio of EC50s for mouse corticotropin releasing factor receptors 1 and 2.

Corticotropin-releasing factor receptor 2 (Mus musculus), sequence (Q60748 whole entry): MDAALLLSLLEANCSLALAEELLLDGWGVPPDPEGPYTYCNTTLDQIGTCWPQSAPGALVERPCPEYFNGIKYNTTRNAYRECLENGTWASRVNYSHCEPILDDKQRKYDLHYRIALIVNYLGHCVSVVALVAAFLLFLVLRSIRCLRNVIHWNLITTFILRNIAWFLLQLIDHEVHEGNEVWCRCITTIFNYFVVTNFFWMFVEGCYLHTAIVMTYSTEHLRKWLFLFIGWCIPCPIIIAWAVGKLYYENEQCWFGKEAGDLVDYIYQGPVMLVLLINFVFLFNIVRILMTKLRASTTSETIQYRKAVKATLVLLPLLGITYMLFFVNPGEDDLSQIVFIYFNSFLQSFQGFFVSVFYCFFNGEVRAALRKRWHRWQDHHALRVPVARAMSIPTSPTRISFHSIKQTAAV

As to `CC[C@H](C)[C@H](NC(=O)[C@@H](NC(=O)[C@H](CC(=O)O)NC(=O)[C@H](CC(C)C)NC(=O)[C@H](CC(C)C)NC(=O)[C@H](CC(C)C)NC(=O)[C@H](CCCN=C(N)N)NC(=O)[C@H](CC(N)=O)NC(=O)[C@H](CC(N)=O)NC(=O)[C@H](C)NC(=O)[C@H](C)NC(=O)[C@H](CCC(N)=O)NC(=O)[C@H](CCC(N)=O)NC(=O)[C@H](CCCCN)NC(=O)[C@H](CCC(=O)O)NC(=O)[C@H](CCCCN)NC(=O)[C@H](CCC(=O)O)NC(=O)[C@H](CCC(N)=O)NC(=O)[C@H](CCCCN)NC(=O)[C@H](CCC(=O)O)NC(=O)[C@@H](NC(=O)[C@H](CCC(=O)O)NC(=O)[C@@H](NC(=O)[C@H](CCSC)NC(=O)[C@H](CCCCN)NC(=O)[C@H](CCCN=C(N)N)NC(=O)[C@H](CC(C)C)NC(=O)[C@H](CC(C)C)NC(=O)[C@H](Cc1ccccc1)NC(=O)[C@H](Cc1ccc(O)cc1)NC(=O)[C@@H]1CCCN1C(=O)[C@H](CC(C)C)NC(=O)[C@H](CC(=O)O)NC(=O)[C@@H](NC(=O)[C@H](CO)NC(=O)[C@@H](NC(=O)[C@@H]1CCCN1C(=O)[C@@H]1CCCN1C(=O)CNC(=O)[C@@H]1CCC(=O)N1)[C@@H](C)CC)[C@@H](C)CC)[C@@H](C)CC)[C@@H](C)CC)[C@@H](C)O)C(=O)O`, the figures for the maximum response (Emax) in experiment [1] and in experiment [2] were 81% and 98%, respectively. Besides, the Selectivity in experiment [3] was determined as 16.

For the compound `CC[C@H](C)[C@H](NC(=O)[C@@H](NC(=O)[C@H](CC(=O)O)NC(=O)[C@H](CC(C)C)NC(=O)[C@H](CC(C)C)NC(=O)[C@H](CC(C)C)NC(=O)[C@H](CCCN=C(N)N)NC(=O)[C@H](CC(N)=O)NC(=O)[C@H](CC(N)=O)NC(=O)[C@H](C)NC(=O)[C@H](C)NC(=O)[C@H](CCC(N)=O)NC(=O)[C@H](CCC(N)=O)NC(=O)[C@H](CCCCN)NC(=O)[C@H](CCC(=O)O)NC(=O)[C@H](CCCCN)NC(=O)[C@H](CCC(=O)O)NC(=O)[C@H](CCC(N)=O)NC(=O)[C@H](CCCCN)NC(=O)[C@H](CCC(=O)O)NC(=O)[C@@H](NC(=O)[C@H](CCC(=O)O)NC(=O)[C@@H](NC(=O)[C@H](CCSC)NC(=O)[C@H](CCCCN)NC(=O)[C@H](CCCN=C(N)N)NC(=O)[C@H](CC(C)C)NC(=O)[C@H](CC(C)C)NC(=O)[C@H](CCC(N)=O)NC(=O)[C@H](CC(C)C)NC(=O)[C@@H]1CCCN1C(=O)[C@H](CC(C)C)NC(=O)[C@H](CC(=O)O)NC(=O)[C@@H](NC(=O)[C@H](CO)NC(=O)[C@@H](NC(=O)[C@@H]1CCCN1C(=O)[C@@H]1CCCN1C(=O)CNC(=O)[C@@H]1CCC(=O)N1)[C@@H](C)CC)[C@@H](C)CC)[C@@H](C)CC)[C@@H](C)CC)[C@@H](C)O)C(=O)O`, the Emax (in general, the greatest response seen or fitted, relative to the assay's reference) in experiment [1] stood at 100%; in experiment [2] it was 88%. In experiment [3], the Selectivity came out at 65.

Turning to `CC[C@H](C)[C@H](NC(=O)[C@@H](NC(=O)[C@H](CC(=O)O)NC(=O)[C@H](CC(C)C)NC(=O)[C@H](CC(C)C)NC(=O)[C@H](CC(C)C)NC(=O)[C@H](CCCN=C(N)N)NC(=O)[C@H](CC(N)=O)NC(=O)[C@H](CC(N)=O)NC(=O)[C@H](C)NC(=O)[C@H](C)NC(=O)[C@H](CCC(N)=O)NC(=O)[C@H](CCC(N)=O)NC(=O)[C@H](CCCCN)NC(=O)[C@H](CCC(=O)O)NC(=O)[C@H](CCCCN)NC(=O)[C@H](CCC(=O)O)NC(=O)[C@H](CCC(N)=O)NC(=O)[C@H](CCCCN)NC(=O)[C@H](CCC(=O)O)NC(=O)[C@@H](NC(=O)[C@H](CCC(=O)O)NC(=O)[C@@H](NC(=O)[C@H](CCSC)NC(=O)[C@H](CCCCN)NC(=O)[C@H](CCCN=C(N)N)NC(=O)[C@H](CC(C)C)NC(=O)[C@H](CC(C)C)NC(=O)[C@H](Cc1ccc(O)cc1)NC(=O)[C@H](Cc1ccc(O)cc1)NC(=O)[C@@H]1CCCN1C(=O)[C@H](CC(C)C)NC(=O)[C@H](CC(=O)O)NC(=O)[C@@H](NC(=O)[C@H](CO)NC(=O)[C@@H](NC(=O)[C@@H]1CCCN1C(=O)[C@@H]1CCCN1C(=O)CNC(=O)[C@@H]1CCC(=O)N1)[C@@H](C)CC)[C@@H](C)CC)[C@@H](C)CC)[C@@H](C)CC)[C@@H](C)O)C(=O)O`, the Emax in experiment [1] stood at 99%; in experiment [2] it was 93%. Also, the Selectivity in experiment [3] stood at 15.

In the case of `CC[C@H](C)[C@H](NC(=O)[C@@H](NC(=O)[C@H](CC(=O)O)NC(=O)[C@H](CC(C)C)NC(=O)[C@H](CC(C)C)NC(=O)[C@H](CC(C)C)NC(=O)[C@H](CCCN=C(N)N)NC(=O)[C@H](CC(N)=O)NC(=O)[C@H](CC(N)=O)NC(=O)[C@H](C)NC(=O)[C@H](C)NC(=O)[C@H](CCC(N)=O)NC(=O)[C@H](CCC(N)=O)NC(=O)[C@H](CCCCN)NC(=O)[C@H](CCC(=O)O)NC(=O)[C@H](CCCCN)NC(=O)[C@H](CCC(=O)O)NC(=O)[C@H](CCC(N)=O)NC(=O)[C@H](CCCCN)NC(=O)[C@H](CCC(=O)O)NC(=O)[C@@H](NC(=O)[C@H](CCC(=O)O)NC(=O)[C@@H](NC(=O)[C@H](CCSC)NC(=O)[C@H](CCCCN)NC(=O)[C@H](CCCN=C(N)N)NC(=O)[C@H](CC(C)C)NC(=O)[C@H](CC(C)C)NC(=O)[C@H](CC(C)C)NC(=O)[C@H](Cc1ccc(O)cc1)NC(=O)[C@@H]1CCCN1C(=O)[C@H](CC(C)C)NC(=O)[C@H](CC(=O)O)NC(=O)[C@@H](NC(=O)[C@H](CO)NC(=O)[C@@H](NC(=O)[C@@H]1CCCN1C(=O)[C@@H]1CCCN1C(=O)CNC(=O)[C@@H]1CCC(=O)N1)[C@@H](C)CC)[C@@H](C)CC)[C@@H](C)CC)[C@@H](C)CC)[C@@H](C)O)C(=O)O`, the maximum response (Emax) in experiment [1] was determined as 86%; in experiment [2], 94%. Further, in experiment [3], the Selectivity is 15.

`CC[C@H](C)[C@H](NC(=O)[C@@H](NC(=O)[C@H](CC(=O)O)NC(=O)[C@H](CC(C)C)NC(=O)[C@H](CC(C)C)NC(=O)[C@H](CC(C)C)NC(=O)[C@H](CCCN=C(N)N)NC(=O)[C@H](CC(N)=O)NC(=O)[C@H](CC(N)=O)NC(=O)[C@H](C)NC(=O)[C@H](C)NC(=O)[C@H](CCC(N)=O)NC(=O)[C@H](CCC(N)=O)NC(=O)[C@H](CCCCN)NC(=O)[C@H](CCC(=O)O)NC(=O)[C@H](CCCCN)NC(=O)[C@H](CCC(=O)O)NC(=O)[C@H](CCC(N)=O)NC(=O)[C@H](CCCCN)NC(=O)[C@H](CCC(=O)O)NC(=O)[C@@H](NC(=O)[C@H](CCC(=O)O)NC(=O)[C@@H](NC(=O)[C@H](CCSC)NC(=O)[C@H](CCCCN)NC(=O)[C@H](CCCN=C(N)N)NC(=O)[C@H](CC(C)C)NC(=O)[C@H](CC(C)C)NC(=O)[C@H](Cc1ccc(O)cc1)NC(=O)[C@H](CC(C)C)NC(=O)[C@@H]1CCCN1C(=O)[C@H](CC(C)C)NC(=O)[C@H](CC(=O)O)NC(=O)[C@@H](NC(=O)[C@H](CO)NC(=O)[C@@H](NC(=O)[C@@H]1CCCN1C(=O)[C@@H]1CCCN1C(=O)CNC(=O)[C@@H]1CCC(=O)N1)[C@@H](C)CC)[C@@H](C)CC)[C@@H](C)CC)[C@@H](C)CC)[C@@H](C)O)C(=O)O` ([pGlu]GPPISIDLPLYLLRKMIEIEKQEKEKQQAANNRLLLDTI-OH): the Emax was found to be 79% in experiment [1] and 73% in experiment [2]. The Selectivity in experiment [3] was 16.

Regarding `CC[C@H](C)[C@H](NC(=O)[C@@H](NC(=O)[C@H](CC(=O)O)NC(=O)[C@H](CC(C)C)NC(=O)[C@H](CC(C)C)NC(=O)[C@H](CC(C)C)NC(=O)[C@H](CCCN=C(N)N)NC(=O)[C@H](CC(N)=O)NC(=O)[C@H](CC(N)=O)NC(=O)[C@H](C)NC(=O)[C@H](C)NC(=O)[C@H](CCC(N)=O)NC(=O)[C@H](CCC(N)=O)NC(=O)[C@H](CCCCN)NC(=O)[C@H](CCC(=O)O)NC(=O)[C@H](CCCCN)NC(=O)[C@H](CCC(=O)O)NC(=O)[C@H](CCC(N)=O)NC(=O)[C@H](CCCCN)NC(=O)[C@H](CCC(=O)O)NC(=O)[C@@H](NC(=O)[C@H](CCC(=O)O)NC(=O)[C@@H](NC(=O)[C@H](CCSC)NC(=O)[C@H](CCCCN)NC(=O)[C@H](CCCN=C(N)N)NC(=O)[C@H](CC(C)C)NC(=O)[C@H](CC(C)C)NC(=O)[C@H](CCC(N)=O)NC(=O)[C@H](Cc1ccc(O)cc1)NC(=O)[C@@H]1CCCN1C(=O)[C@H](CC(C)C)NC(=O)[C@H](CC(=O)O)NC(=O)[C@@H](NC(=O)[C@H](CO)NC(=O)[C@@H](NC(=O)[C@@H]1CCCN1C(=O)[C@@H]1CCCN1C(=O)CNC(=O)[C@@H]1CCC(=O)N1)[C@@H](C)CC)[C@@H](C)CC)[C@@H](C)CC)[C@@H](C)CC)[C@@H](C)O)C(=O)O`, the maximal response (Emax) in experiment [1] stood at 100%; in experiment [2] it was 99%. Further, the Selectivity in experiment [3] came to 47.

Consider `CC[C@H](C)[C@H](NC(=O)[C@@H](NC(=O)[C@H](CC(=O)O)NC(=O)[C@H](CC(C)C)NC(=O)[C@H](CC(C)C)NC(=O)[C@H](CC(C)C)NC(=O)[C@H](CCCN=C(N)N)NC(=O)[C@H](CC(N)=O)NC(=O)[C@H](CC(N)=O)NC(=O)[C@H](C)NC(=O)[C@H](C)NC(=O)[C@H](CCC(N)=O)NC(=O)[C@H](CCC(N)=O)NC(=O)[C@H](CCCCN)NC(=O)[C@H](CCC(=O)O)NC(=O)[C@H](CCCCN)NC(=O)[C@H](CCC(=O)O)NC(=O)[C@H](CCC(N)=O)NC(=O)[C@H](CCCCN)NC(=O)[C@H](CCC(=O)O)NC(=O)[C@@H](NC(=O)[C@H](CCC(=O)O)NC(=O)[C@@H](NC(=O)[C@H](CCSC)NC(=O)[C@H](CCCCN)NC(=O)[C@H](CCCN=C(N)N)NC(=O)[C@H](CC(C)C)NC(=O)[C@H](CC(C)C)NC(=O)[C@H](CC(C)C)NC(=O)[C@@H](NC(=O)[C@@H]1CCCN1C(=O)[C@H](CC(C)C)NC(=O)[C@H](CC(=O)O)NC(=O)[C@@H](NC(=O)[C@H](CO)NC(=O)[C@@H](NC(=O)[C@@H]1CCCN1C(=O)[C@@H]1CCCN1C(=O)CNC(=O)[C@@H]1CCC(=O)N1)[C@@H](C)CC)[C@@H](C)CC)[C@@H](C)O)[C@@H](C)CC)[C@@H](C)CC)[C@@H](C)O)C(=O)O`, for which the Emax was 48% in experiment [1] and 100% in experiment [2]. In addition, in experiment [3], the Selectivity is above 49.
